Reference: ChEMBL document CHEMBL3045398, “Fungicidal activities of cyflufenamid against various plant-pathogenic fungi” (J Pestic Sci, 2006)
The source made the active and inactive calls. The calls are words filed in the database; no cut-off is given here.

Legend:
[1] = test system: Phomopsis; test: Fungicidal activity against Phomopsis sp. assessed as inhibition of mycelial growth measured after 3 to 20 days by agar dilution method; type: functional, organism-based
[2] = test system: Pestalotia longiseta; test: Fungicidal activity against Pestalotia longiseta assessed as inhibition of mycelial growth measured after 3 to 20 days by agar dilution method; type: functional, organism-based, Pestalotiopsis longiseta
[3] = test system: Penicillium italicum; test: Fungicidal activity against Penicillium italicum assessed as inhibition of mycelial growth measured after 3 to 20 days by agar dilution method; type: functional, organism-based
[4] = test system: Blumeria graminis f. sp. tritici; test: Fungicidal activity against Blumeria graminis f. sp. tritici on wheat leaves assessed as spore formation measured at 12.5 ppm; type: functional
[5] = test system: Monilinia fructicola; test: Fungicidal activity against Monilinia fructicola assessed as vacuolated hyphae measured by Transmission electron microscopy; type: functional, organism-based
[6] = test system: Monilinia fructicola; test: Fungicidal activity against Monilinia fructicola assessed as rounded hyphae and various size vessicles measured by Transmission electron microscopy; type: functional, organism-based
[7] = test system: Blumeria graminis f. sp. tritici; test: Fungicidal activity against Blumeria graminis f. sp. tritici on wheat leaves assessed as rate of appressorium formation measured at 0.2 ppm after 76 hr; type: functional
[8] = test system: Blumeria graminis f. sp. tritici; test: Fungicidal activity against Blumeria graminis f. sp. tritici on wheat leaves assessed as rate of appressorium formation measured at 3.1 ppm after 76 hr; type: functional
[9] = test system: Blumeria graminis f. sp. tritici; test: Fungicidal activity against Blumeria graminis f. sp. tritici on wheat leaves assessed as rate of appressorium formation measured at 12.5 ppm after 76 hr; type: functional
[10] = test system: Blumeria graminis f. sp. tritici; test: Fungicidal activity against Blumeria graminis f. sp. tritici on wheat leaves assessed as rate of spore germination measured at 12.5 ppm after 24 hr (reference value: 72.2 +/- 4.2%); type: functional
[11] = test system: Blumeria graminis f. sp. tritici; test: Fungicidal activity against Blumeria graminis f. sp. tritici on wheat leaves assessed as rate of spore germination measured at 12.5 ppm after 12 hr (reference value: 67.4 +/- 8.6%); type: functional
[12] = test system: Blumeria graminis f. sp. tritici; test: Fungicidal activity against Blumeria graminis f. sp. tritici on wheat leaves assessed as rate of spore germination measured at 12.5 ppm after 6 hr (reference value: 49.8 +/- 17.3%); type: functional
[13] = test system: Blumeria graminis f. sp. tritici; test: Fungicidal activity against Blumeria graminis f. sp. tritici on wheat leaves assessed as rate of spore germination measured at 12.5 ppm after 3 hr (reference value: 22.5 +/- 7.6%); type: functional
[14] = test system: Venturia inaequalis; test: Fungicidal activity against Venturia inaequalis assessed as inhibition of mycelial growth measured after 3 to 20 days by agar dilution method; type: functional, organism-based
[15] = test system: Parastagonospora nodorum; test: Fungicidal activity against Phaeosphaeria nodorum assessed as inhibition of mycelial growth measured after 3 to 20 days by agar dilution method; type: functional, organism-based
[16] = test system: Taphrina deformans; test: Fungicidal activity against Taphrina deformans assessed as inhibition of mycelial growth measured after 3 to 20 days by agar dilution method; type: functional, organism-based
[17] = test system: Rosellinia necatrix; test: Fungicidal activity against Rosellinia necatrix assessed as inhibition of mycelial growth measured after 3 to 20 days by agar dilution method; type: functional, organism-based
[18] = test system: Blumeria graminis f. sp. tritici; test: Fungicidal activity against Blumeria graminis f. sp. tritici on wheat leaves assessed as colony formation measured at 0.8 ppm; type: functional
[19] = test system: Blumeria graminis f. sp. tritici; test: Fungicidal activity against Blumeria graminis f. sp. tritici on wheat leaves assessed as colony formation measured at 3.1 ppm; type: functional
[20] = test system: Blumeria graminis f. sp. tritici; test: Fungicidal activity against Blumeria graminis f. sp. tritici on wheat leaves assessed as colony formation measured at 12.5 ppm; type: functional
[21] = test system: Blumeria graminis f. sp. tritici; test: Fungicidal activity against Blumeria graminis f. sp. tritici on wheat leaves assessed as rate of appressorium formation measured at 0.8 ppm after 168 hr; type: functional
[22] = test system: Blumeria graminis f. sp. tritici; test: Fungicidal activity against Blumeria graminis f. sp. tritici on wheat leaves assessed as rate of appressorium formation measured at 3.1 ppm after 168 hr; type: functional
[23] = test system: Blumeria graminis f. sp. tritici; test: Fungicidal activity against Blumeria graminis f. sp. tritici on wheat leaves assessed as rate of appressorium formation measured at 12.5 ppm after 168 hr; type: functional
[24] = test system: Colletotrichum gloeosporioides; test: Fungicidal activity against Glomerella cingulata assessed as inhibition of mycelial growth measured after 3 to 20 days by agar dilution method; type: functional, organism-based
[25] = test system: Fusarium graminearum; test: (§1) Fungicidal activity against Fusarium graminearum assessed as inhibition of mycelial growth measured after 3 to 20 days by agar dilution method; type: functional, organism-based
[26] = test system: Fusarium graminearum; test: as §1; type: functional, organism-based; remark: listed apart in the source
[27] = test system: Fulvia fulva; test: Fungicidal activity against Fulvia fulva assessed as inhibition of mycelial growth measured after 3 to 20 days by agar dilution method; type: functional, organism-based
[28] = test system: Elsinoe ampelina; test: Fungicidal activity against Elsinoe ampelina assessed as inhibition of mycelial growth measured after 3 to 20 days by agar dilution method; type: functional, organism-based
[29] = test system: Diaporthe citri; test: Fungicidal activity against Diaporthe citri assessed as inhibition of mycelial growth measured after 3 to 20 days by agar dilution method; type: functional, organism-based
[30] = test system: Cercospora; test: Fungicidal activity against Cercospora theae assessed as inhibition of mycelial growth measured after 3 to 20 days by agar dilution method; type: functional, organism-based
[31] = test system: Cercospora kikuchii; test: Fungicidal activity against Cercospora kikuchii assessed as inhibition of mycelial growth measured after 3 to 20 days by agar dilution method; type: functional, organism-based
[32] = test system: Botryosphaeria; test: Fungicidal activity against Botryosphaeria sp. assessed as inhibition of mycelial growth measured after 3 to 20 days by agar dilution method; type: functional, organism-based
[33] = test system: Botrytis cinerea; test: Fungicidal activity against Botryotinia fuckeliana assessed as inhibition of mycelial growth measured after 3 to 20 days by agar dilution method; type: functional, organism-based
[34] = test system: Alternaria alternata; test: Fungicidal activity against Alternaria alternata apple pathotype assessed as inhibition of mycelial growth measured after 3 to 20 days by agar dilution method; type: functional, organism-based
[35] = test system: Podosphaera pannosa; test: Fungicidal activity against Podosphaera pannosa in rose assessed as powdery mildew disease control measured after 7 to 10 days by pot test; type: functional
[36] = test system: Blumeria graminis f. sp. tritici; test: Fungicidal activity against Blumeria graminis f. sp. tritici in wheat assessed as powdery mildew disease control measured after 7 to 10 days by pot test; type: functional
[37] = test system: Podosphaera fusca; test: Fungicidal activity against Sphaerotheca cucurbitae in cucumber assessed as powdery mildew disease control measured after 7 to 10 days by pot test; type: functional
[38] = test system: Plasmopara viticola; test: Fungicidal activity against Plasmopara viticola on grape (Vitis vinifera, cv.Kousyu) assessed as downy mildew disease control at 200 ppm measured after 5 to 10 days; type: functional
[39] = test system: Blumeria graminis f. sp. tritici; test: Fungicidal activity against Blumeria graminis f. sp. tritici on wheat (Triticum aestivum, cv. Chihoku) assessed as powdery mildew disease control at 50 ppm measured after 5 to 10 days; type: functional
[40] = test system: Blumeria graminis f. sp. tritici; test: Fungicidal activity against Blumeria graminis f. sp. tritici on wheat (Triticum aestivum, cv. Chihoku) assessed as powdery mildew disease control at 12.5 ppm measured after 5 to 10 days; type: functional
[41] = test system: Blumeria graminis f. sp. tritici; test: Fungicidal activity against Blumeria graminis f. sp. tritici on wheat (Triticum aestivum, cv. Chihoku) assessed as powdery mildew disease control at 200 ppm measured after 5 to 10 days; type: functional

SMILES: O=C(Cc1ccccc1)N/C(=N\OCC1CC1)c1c(C(F)(F)F)ccc(F)c1F [CYFLUFENAMID]
- EC50 [1]: > 100 ppm
- EC50 [2]: > 100 ppm
- EC50 [3]: 7 ppm
- inhibition at 12.5 ppm [4]: 100%
- Activity [5]: Active
- Activity [6]: Active
- inhibition at 0.2 ppm [7]: 77.6%
- inhibition at 3.1 ppm [8]: 99.4%
- inhibition at 12.5 ppm [9]: 100%
- Activity [10]: 61.5%
- Activity [11]: 60.7%
- Activity [12]: 47.6%
- Activity [13]: 19.8%
- EC50 [14]: > 100 ppm
- EC50 [15]: > 100 ppm
- EC50 [16]: 3 ppm
- EC50 [17]: 0.7 ppm
- inhibition at 0.8 ppm [18]: 96.9%
- inhibition at 3.1 ppm [19]: 100%
- inhibition at 12.5 ppm [20]: 100%
- inhibition at 0.8 ppm [21]: 99.4%
- inhibition at 3.1 ppm [22]: 99.9%
- inhibition at 12.5 ppm [23]: 100%
- EC50 [24]: > 100 ppm
- EC50 [25]: > 100 ppm
- EC50 [26]: > 100 ppm
- EC50 [27]: > 100 ppm
- EC50 [28]: 5 ppm
- EC50 [29]: 6 ppm
- EC50 [30]: > 100 ppm
- EC50 [31]: 1 ppm
- EC50 [32]: 0.07 ppm
- EC50 [33]: > 100 ppm
- EC50 [34]: > 100 ppm
- MIC [35]: < 1.6 µg/mL
- MIC [36]: < 0.8 µg/mL
- MIC [37]: < 0.8 µg/mL
- Efficacy [38]: 0%
- Efficacy [39]: 100%
- Efficacy [40]: 100%
- Efficacy [41]: 100%
